Here are results for 20 compounds from US9085576B2 (AMGEN INC., priority 2013, dated 2015).

Structures can show the parent of a compound that is named as a salt. Some results are limits rather than exact numbers.

Sequence of Cathepsin D (Cat D) (P07339 65-412, species assumed): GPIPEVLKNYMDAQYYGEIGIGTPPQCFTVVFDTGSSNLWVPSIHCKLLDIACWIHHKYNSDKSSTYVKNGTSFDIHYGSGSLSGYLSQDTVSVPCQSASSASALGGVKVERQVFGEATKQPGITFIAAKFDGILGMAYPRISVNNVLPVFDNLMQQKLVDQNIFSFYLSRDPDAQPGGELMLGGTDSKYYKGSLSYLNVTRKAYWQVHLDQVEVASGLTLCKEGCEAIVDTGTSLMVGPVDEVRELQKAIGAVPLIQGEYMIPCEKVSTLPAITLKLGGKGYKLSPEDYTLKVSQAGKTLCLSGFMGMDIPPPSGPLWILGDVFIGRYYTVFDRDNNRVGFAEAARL

The test concerns the target Cathepsin D (Cat D) (Homo sapiens (Human), UniProt P07339). As to the kind of experiment: In vitro enzymatic Cathepsin D (Cat D) FRET assay. Type of test: biochemical. Particulars: read-out: CatD IC50.
For the compound `Cc1cc(OCC#CC(C)(C)O)cnc1C(=O)Nc1ccc(F)c(C2(C)N=C(N)O[C@H]3C[C@H]32)c1` (mixture of isomers) [Example 29, N-(3-([1(R,S),5(S,R),6(R,S)]-3-amino-5-methyl-2-oxa-4-azabicyclo[4.1.0]hept-3-en-5-yl)-4-fluorophenyl)-5-((4-hydroxy-4-methylpent-2-yn-1-yl)oxy)-3-methylpicolinamide], the IC50 is 462 µM.

Regarding `Cc1cc(NC(=O)c2ccc(Cl)cn2)cc([C@@]2(C(F)F)N=C(N)O[C@@H]3C[C@@H]32)c1F` (racemic) [Example 30, N-(3-([(1R,S),(5S,R),(6R,S)]-3-amino-5-(difluoromethyl)-2-oxa-4-azabicyclo[4.1.0]hept-3-en-5-yl)-4-fluoro-5-methylphenyl)-5-chloropicolinamide], the concentration for half-maximal inhibition (IC50) was determined as 469 µM.

As for `COc1c(F)cc(NC(=O)c2ccc(Cl)cn2)cc1[C@@]1(CF)N=C(N)O[C@@H]2C[C@@H]21` (racemic) [Example 31, N-(3-([(1R,S),(5S,R),(6R,S)]-3-amino-5-(fluoromethyl)-2-oxa-4-azabicyclo[4.1.0]hept-3-en-5-yl)-5-fluoro-4-methoxyphenyl)-5-chloropicolinamide], the IC50 is 339 µM.

For the compound `N#Cc1ccc(C(=O)Nc2ccc(F)c([C@]3(C(F)F)N=C(N)O[C@H]4C[C@H]43)c2)nc1` (racemic) [Example 59, N-(3-([1(R,S),5(S,R),6(R,S)]-3-amino-5-(difluoromethyl)-2-oxa-4-azabicyclo[4.1.0]hept-3-en-5-yl)-4-fluorophenyl)-5-cyanopicolinamide compound], the IC50 worked out at 899 µM.

Turning to `N#Cc1cnc(C(=O)Nc2ccc(F)c([C@]3(C(F)F)N=C(N)O[C@H]4C[C@H]43)c2)c(Cl)c1` (racemic) [Example 62, N-(3-([1(R,S),5(S,R),6(R,S)]-3-amino-5-(difluoromethyl)-2-oxa-4-azabicyclo[4.1.0]hept-3-en-5-yl)-4-fluorophenyl)-3-chloro-5-cyanopicolinamide], the IC50 was determined as 1100 µM.

Take `N#Cc1ccc(C(=O)Nc2cnc(F)c([C@]3(C(F)F)N=C(N)O[C@H]4C[C@H]43)c2)nc1` (racemic) [Example 75, N-(5-([1(R,S),5(S,R),6(R,S)]-3-amino-5-(difluoromethyl)-2-oxa-4-azabicyclo[4.1.0]hept-3-en-5-yl)-6-fluoropyridin-3-yl)-5-cyanopicolinamide]: the half-maximal inhibitory concentration (IC50) worked out at 348 µM.

As for `N#Cc1ccc(C(=O)Nc2ccc(Cl)c([C@@]3(C(F)F)N=C(N)O[C@@H]4C[C@@H]43)c2)nc1` (racemic) [Example 98, N-(3-(((1R,S), (5S,R), (6R,S))-3-amino-5-(difluoromethyl)-2-oxa-4-azabicyclo[4.1.0]hept-3-en-5-yl)-4-chlorophenyl)-5-cyanopicolinamide trifluoroacetate], the half-maximal inhibitory concentration (IC50) amounted to 1160 µM.

Turning to `N#Cc1ccc(C(=O)Nc2cc(F)c(F)c([C@@]3(C(F)F)N=C(N)O[C@@H]4C[C@@H]43)c2)nc1` (stereo in doubt) [Example 109, N-(3-((1R,5S,6R)-3-amino-5-(difluoromethyl)-2-oxa-4-azabicyclo[4.1.0]hept-3-en-5-yl)-4,5-difluorophenyl)-5-cyanopicolinamide], the 50% inhibitory concentration (IC50) is greater than 400 µM.

As to `N#Cc1ccc(C(=O)Nc2cc(F)c(F)c([C@@]3(CF)N=C(N)O[C@@H]4C[C@@H]43)c2)nc1` [Example 37, N-(3-((1R,5S,6R)-3-amino-5-(fluoromethyl)-2-oxa-4-azabicyclo[4.1.0]hept-3-en-5-yl)-4,5-difluorophenyl)-5-cyanopicolinamide], the IC50 came to 364 µM.

Consider `N#Cc1ccc(C(=O)Nc2cc(F)c(F)c([C@]3(CF)N=C(N)O[C@H]4C[C@H]43)c2)nc1` [Example 38, N-(3-((1S,55,6S) 3-amino-5-(fluoromethyl)-2-oxa-4-azabicyclo[4.1.0]hept-3-en-5-yl)-4,5-difluorophenyl)-5-cyanopicolinamide], for which the IC50 was 2620 µM.

For `COc1ccc(C(=O)Nc2cc(F)c(F)c([C@@]3(CF)N=C(N)O[C@@H]4C[C@@H]43)c2)nc1` [Example 41, N-(3-((1R,5S,6R)-3-amino-5-(fluoromethyl)-2-oxa-4-azabicyclo[4.1.0]hept-3-en-5-yl)-4,5-difluorophenyl)-5-methoxypicolinamide], the IC50 was 238 µM.

As to `COCc1cc(Cl)cnc1C(=O)Nc1ccc(F)c([C@@]2(C(F)F)N=C(N)O[C@@H]3C[C@@H]32)c1` [Example 42, N-(3-((1R,5S,6R)-3-amino-5-(difluoromethyl)-2-oxa-4-azabicyclo[4.1.0]hept-3-en-5-yl)-4-fluorophenyl)-5-chloro-3-(methoxymethyl) picolinamide], the 50% inhibitory concentration (IC50) is 736 µM.

Regarding `N#Cc1ccc(C(=O)Nc2ccc(F)c([C@]3(C(F)F)N=C(N)O[C@H]4C[C@H]43)c2)nc1` [Example 65, N-(3-((1S,5R,6S)-3-amino-5-(difluoromethyl)-2-oxa-4-azabicyclo[4.1.0]hept-3-en-5-yl)-4-fluorophenyl)-5-cyanopicolinamide], the IC50 was greater than 400 µM.

As for `N#Cc1cnc(C(=O)Nc2ccc(F)c([C@]3(C(F)F)N=C(N)O[C@H]4C[C@H]43)c2)c(Cl)c1` [Example 67, N-(3-((1S,5R,6S)-3-amino-5-(difluoromethyl)-2-oxa-4-azabicyclo[4.1.0]hept-3-en-5-yl)-4-fluorophenyl)-3-chloro-5-cyanopicolinamide], the 50% inhibitory concentration (IC50) amounted to 1290 µM.

Turning to `N#Cc1ccc(C(=O)Nc2ccc(Cl)c([C@]3(C(F)F)N=C(N)O[C@H]4C[C@H]43)c2)nc1` [Example 94, N-(3-((1S,5R,6S)-3-amino-5-(difluoromethyl)-2-oxa-4-azabicyclo[4.1.0]hept-3-en-5-yl)-4-chlorophenyl)-5-cyanopicolinamide], the half-inhibitory concentration (IC50) turned out to be 1920 µM.

On to `NC1=N[C@@](c2cc(NC(=O)c3ccc(Cl)cn3)cc(F)c2F)(C(F)F)[C@H]2C[C@H]2O1` [Example 107, N-(3-((1R,5S,6R)-3-amino-5-(difluoromethyl)-2-oxa-4-azabicyclo[4.1.0]hept-3-en-5-yl)-4,5-difluorophenyl)-5-chloropicolinamide], for which the half-maximal inhibitory concentration (IC50) was 213 µM.

In the case of `NC1=N[C@](c2cc(NC(=O)c3ccc(Cl)cn3)cc(F)c2F)(C(F)F)[C@@H]2C[C@@H]2O1` [Example 108, N-(3-((1S,5R,6S)-3-amino-5-(difluoromethyl)-2-oxa-4-azabicyclo[4.1.0]hept-3-en-5-yl)-4,5-difluorophenyl)-5-chloropicolinamide], the concentration for half-maximal inhibition (IC50) is 472 µM.

Consider `COc1cnc(C(=O)Nc2cc(F)c(F)c([C@@]3(C(F)F)N=C(N)O[C@@H]4C[C@@H]43)c2)cn1` [Example 112, N-(3-((1R,5S,6R)-3-amino-5-(difluoromethyl)-2-oxa-4-azabicyclo[4.1.0]hept-3-en-5-yl)-4,5-difluorophenyl)-5-methoxypyrazine-2-carboxamide], for which the 50% inhibitory concentration (IC50) came out at 4180 µM.

`N#Cc1ccc(C(=O)Nc2cc(F)c(F)c([C@@]3(C(F)F)N=C(N)O[C@@H]4C[C@@H]43)c2)nc1` [Example 113, N-(3-((1R,5S,6R)-3-amino-5-(difluoromethyl)-2-oxa-4-azabicyclo[4.1.0]hept-3-en-5-yl)-4,5-difluorophenyl)-5-cyanopicolinamide]: the half-maximal inhibitory concentration (IC50) was greater than 618 µM.

Consider `NC1=N[C@@](c2cc(NC(=O)c3ccc(Br)cn3)cc(F)c2F)(C(F)F)[C@H]2C[C@H]2O1` [Example 116, N-(3-((1R,5S,6R)-3-amino-5-(difluoromethyl)-2-oxa-4-azabicyclo[4.1.0]hept-3-en-5-yl)-4,5-difluorophenyl)-5-bromopicolinamide], for which the IC50 is 81.9 µM.

The IC50 is the concentration that inhibits the measured activity by half.
